Experimental data as given in patent US10457709B2, “Antimicrobial peptides, their variants and uses” (priority 2015, dated 2019).
Like-named read-outs stand apart in the source and are kept apart here. Square brackets hold non-standard residues; d marks the D form. Peptide text beside a SMILES is read from it.

Tests used:
[1] = system: MRSA strains (S. aureus COL); assay: MIC, synergistic activity with Ertapenem (4 μg/ml); assay type: cell-based, Staphylococcus aureus; details: Ertapenem 4 μg/ml; D-form peptide
Description: Minimum inhibition concentrations (MICs) were determined against Escherichia coli (ATCC 25922), Staphylococcus aureus (ATCC 25923), Klebsiella pneumoniae (ATCC 10031) and Pseudomonas aeruginosa (ATCC 27853). Also clinical strains of E. coli, K. pneumoniae, E. cloacae, P. aeruginosa, Serratia marcescens, Proteus mirabilis, S. pneumoniae, Acinetobacter baumannii, A. johnsonii and S. aureus were used for MICs assays. Additionally, clinical strains of yeast including Candida albicans, C. glabrata, C. parapsilosis and C. quillermondiae were used. The susceptibility of these microorganisms to Chain peptides were determined using micro broth dilution assay. Colonies of the respective microorganism from Muller Hinton (MH) agar plates incubated overnight were suspended in MH broth media and final concentration of microorganism was adjusted to 5.0×10^5 cfu/ml. An aliquot of 10 μl of each Chain peptide, or gentamicin, tetracycline as reference antibiotics were added in differing concentrations along with 90 μl of bacterial suspension to 96 well polypropylene plates and incubated at 37° C. for 20 to 24 hours. Concentrations of Chain peptides and reference antibiotics ranged from 0.125 to 128 μg/ml and the MICs were recorded as the lowest concentration with no visual growth of bacteria. Similarly, antifungal MICs were tested in Potato dextrose broth.
Peptides Chain 104, Chain 105, Chain 201, Chain 308, Chain 310 were tested against antibiotic-sensitive strains of S. aureus RN4220 and methicillin resistant strains of S. aureus COL (MRSA). Chain peptides comprising of either L- or D-form amino acids were tested against these bacteria, and the D-form peptides were found have better activity compared to L-form (Table 6). Synergistic activity of chain peptides along with Ertapenem (4 μg/ml) was tested to know whether it will influence the activity against MRSA strains. […] Chain 310 has the best antibacterial activity against the MRSA strains with a MIC of 0.06 & 0.03 μg/ml along with Ertapenem (4 μg/ml) for both forms of L and D-peptides (Table 6).

[2] = system: Escherichia coli (ATCC 25922); assay type: cell-based; details: Peptides 50 μg, Gentamycin 5 μg, diameter including the wells
Description: (§1) The radial diffusion assay (RDA) was carried out as described by Andersen et al. (2010). Briefly, 30 ml of 1/10 Muller-Hinton broth (MHB) supplemented with 1% agarose and 5.0×10^5 CFU/ml S. aureus or E. coli or K. pneumoniae, P. aeruginosa cells was poured into a single-well omnitray (Nunc) and overlaid with a TSP 96-well plate. […] The peptides were also tested against Fusarium oxysporum and Verticillium dahliae, for which ⅓ potato dextrose agarose was used. To test the synergistic effect of peptides, each peptide was mixed in equimolar concentrations. Mix1 (met1-12), Mix2 (met3, 4 and 5), Mix3 (met8, 9 and 10), Mix4 (met11, 12) and Mix5 (8, 9, 10, 11, 12) were prepared and tested against E. coli and S. aureus. Gentamicin and vancomycin were included as positive controls for bacteria and amphotericin B was used as the control for fungi.
(§2) By using rational design techniques, we have designed variants of peptides by incorporating or replacing various amino acids in the original peptides. Thus, we have designed and modified Chain 100, Chain 200 and Chain 300 with tryptophan (W), arginine (R) and lysine (K) at various positions to improve antimicrobial activity (FIGS. 4a-c and 5a-c). In some peptides we have also used other amino acids such as Leucine (L), Cysteine (C), Isoleucine (I), Phenylalanine (F) and Alanine (A). For synthesis, 32 variants and 3 original peptides were selected based on the various parameters such as positive charge, aliphatic index and instability index. Peptides variants were tested by using radial diffusion assay against Escherichia coli (ATCC 25922), Staphylococcus aureus (ATCC 25923), Klebsiella pneumoniae (ATCC 10031) and Pseudomonas aeruginosa (ATCC 27853) (FIGS. 6a-c). The zone of inhibition ranged between 10-18 mm for Escherichia coli and Staphylococcus aureus, 6-18 mm & 8-18 mm for Pseudomonas aeruginosa and Klebsiella pneumonia respectively (Table 2). For Gentamicin it was between 22-24 mm. Antifungal activity was tested for promising antibacterial peptides (Chains 104, 105, 109, 201, 204, 306, 307, 308, 310) against Aspergillus flavus (DSM 1959) and Penicillium chrysogenum (DSM 1075). All these peptides has activity at a concentration of 20 μg, Amphotericin B was used as a positive control at 20 μg (FIG. 7).

[3] = system: Pseudomonas aeruginosa (ATCC 27853); assay type: cell-based; details: Peptides 50 μg, Gentamycin 5 μg, diameter including the wells
Description: as §1, §2

[4] = system: Klebsiella pneumoniae (ATCC 10031); assay type: cell-based; details: Peptides 50 μg, Gentamycin 5 μg, diameter including the wells
Description: as §1, §2

[5] = system: Staphylococcus aureus (ATCC 25923); assay type: cell-based; details: Peptides 50 μg, Gentamycin 5 μg, diameter including the wells
Description: as §1, §2

[6] = system: Escherichia coli (ATCC 25922); assay: microbe, parasite or virus in culture; assay type: cell-based
Summary of the method: (§3)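 Colonies from overnight MH agar plates were suspended in MH broth and adjusted to 5.0×10^5 cfu/ml. Peptide or reference antibiotic was then added at concentrations from 0.125 to 128 μg/ml, and plates were incubated at 37° C. for 20 to 24 hours before visual scoring of growth.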

[7] = system: Pseudomonas aeruginosa (ATCC 27853); assay: microbe, parasite or virus in culture; assay type: cell-based
Summary of the method: as §3

[8] = system: Klebsiella pneumoniae (ATCC 10031); assay: microbe, parasite or virus in culture; assay type: cell-based
Summary of the method: as §3

[9] = system: Staphylococcus aureus (ATCC 25923); assay: microbe, parasite or virus in culture; assay type: cell-based
Summary of the method: as §3

CC(C)C[C@@H](NC(=O)[C@@H](CCCCN)NC(=O)[C@@H](CCCCN)NC(=O)[C@@H](Cc1ccccc1)NC(=O)[C@@H](CC(C)C)NC(=O)[C@@H](Cc1c[nH]c2ccccc12)NC(=O)[C@@H](CCCNC(=N)N)NC(=O)[C@@H](Cc1c[nH]c2ccccc12)NC(=O)[C@@H](CCCCN)NC(=O)[C@@H](CCCNC(=N)N)NC(=O)[C@H](N)CCCCN)C(=O)O [Chain310D] (H-[dK][dR][dK][dW][dR][dW][dL][dF][dK][dK][dL]-OH)
MIC against MRSA strains along with Ertapenem [1]: 0.03 µg/mL

Gentamicin [reference compound]
Inhibition zone, Escherichia coli [2]: 22-24 mm | Inhibition zone, Escherichia coli ([2]; listed as Gentamycin): 22 mm | Inhibition zone, Pseudomonas aeruginosa [3]: 22-24 mm | Inhibition zone, Pseudomonas aeruginosa ([3]; listed as Gentamycin): 24 mm | Inhibition zone, Klebsiella pneumoniae [4]: 22-24 mm | Inhibition zone, Klebsiella pneumoniae ([4]; listed as Gentamycin): 22 mm | Inhibition zone, Staphylococcus aureus [5]: 22-24 mm | Inhibition zone, Staphylococcus aureus ([5]; listed as Gentamycin): 24 mm | Minimum inhibitory concentration, Escherichia coli (ATCC 25922) [6]: 1 µg/mL | Minimum inhibitory concentration, Pseudomonas aeruginosa (ATCC 27853) [7]: 0.25 µg/mL | Minimum inhibitory concentration, Klebsiella pneumoniae (ATCC 10031) [8]: 0.25 µg/mL | Minimum inhibitory concentration, Staphylococcus aureus (ATCC 25923) [9]: 0.25 µg/mL
